Holding throughout (type): biochemical
One assay addresses T1, collagenase (MMP1) (Homo sapiens, UniProt P03956).
T1 sequence (P03956 100-469): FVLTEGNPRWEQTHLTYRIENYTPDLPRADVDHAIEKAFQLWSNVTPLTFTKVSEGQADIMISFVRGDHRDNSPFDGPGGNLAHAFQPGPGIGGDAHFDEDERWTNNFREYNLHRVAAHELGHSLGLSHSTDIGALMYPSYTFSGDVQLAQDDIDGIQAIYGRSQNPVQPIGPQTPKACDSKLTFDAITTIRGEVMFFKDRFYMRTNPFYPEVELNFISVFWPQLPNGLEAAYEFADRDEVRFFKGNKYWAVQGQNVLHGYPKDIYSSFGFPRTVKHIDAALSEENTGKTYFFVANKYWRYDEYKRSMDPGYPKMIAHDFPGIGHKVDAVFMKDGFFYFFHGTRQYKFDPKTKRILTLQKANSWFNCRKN
The experiment in a line: MMP1 enzyme inhibition assay (fluorogenic peptide substrate McaPLGLDpaAR). As to conditions: protocol as for MMP9 assay. How it is done:
(§1) Stock solutions were made up as follows: • Assay Buffer: 100 mM Tris-HCl pH 7.6 containing 100 mM NaCl, 10 mM CaCl2, and 0.05% Brij 35 • Substrate: 0.4 mM McaPLGLDpaAR (from Bachem) (0.437 mg/ml) stock solution in 100% DMSO (stored at −20° C.). Dilute to 8 μM in assay buffer. • Enzyme: Recombinant human 92 kDa gelatinase (MMP-9; APMA (4-aminophenyl • mercuric acetate)—activated if necessary) appropriately diluted in assay buffer.
(§2) Test Compounds were prepared initially as 10 mM compound solution in 100% DMSO, diluted to 1 mM in 100% DMSO, then serially diluted 3-fold in 100% DMSO across columns 1-10 of a 96-well microtitre plate Assay concentration range, 100 μM (column 1) to 5.1 nM (column 10)
(§3) The assay was performed in a total volume of 100 μl per well in 96-well microtitre plates. Activated enzyme (20 μl) was added to the wells followed by 20 μl of assay buffer. Appropriate concentrations of test compounds dissolved in 10 μl of DMSO were then added followed by 50 μl of McaPLGLDpaAR (8 μM, prepared by dilution of DMSO stock in assay buffer). For each assay ten concentrations of test compound were examined in duplicate. Control wells lack either enzyme or test compound. The reactions were incubated at 37° C. for 2 hours. The fluorescence at 405 nm was measured immediately with an SLT Fluostar fluorometer (SLT Labinstruments GmbH, Grödig, Austria) using 320 nm excitation, without stopping the reaction.
(§4) The effect of the test compound was determined from the dose response curve generated by the 10 duplicate concentrations of inhibitor. The IC50 (the concentration of compound required to give a 50% decrease in enzyme activity) was obtained by fitting data to the equation, Y=a+((b−a)/(1+(c/X)^d)). (Y=inhibition achieved for a particular dose; X=the dose in nM; a=minimum y or zero % inhibition; b=maximum y or 100% inhibition; c=is the IC50; d=is the slope). The result was rounded to one significant figure.
• Compounds were tested for inhibitory activity against collagenase (MMP1) in an assay using a coumarin-labelled peptide substrate, (7-methoxycoumarin-4-yl)acetyl-Pro-Leu-Gly-Leu-(3-[2,4-dinitrophenyl]-L-2,3-diaminopropionyl)-Ala-Arg-NH2 (McaPLGLDpaAR) (Knight et al, FEBS Lett. 1992; 263-266). The protocol for this assay was as described for the MMP9 assay above.

The next assay deals with metalloelastase (MMP12) (Homo sapiens, UniProt P39900). As to the kind of experiment: MMP12 enzyme inhibition assay (fluorogenic peptide substrate McaPLGLDpaAR). Conditions: protocol as for MMP9 assay. The method, then: as §1, §2, §3, §4
Compounds were tested for inhibitory activity against metalloelastase (MMP12) in an assay using a coumarin-labelled peptide substrate, (7-methoxycoumarin-4-yl)acetyl-Pro-Leu-Gly-Leu-(3-[2,4-dinitrophenyl]-L-2,3-diaminopropionyl)-Ala-Arg-NH2 (McaPLGLDpaAR) (Knight et al, FEBS Lett. 1992; 263-266). The protocol for this assay was as described for the MMP9 assay above.

A further assay concerns the target 92 kDa gelatinase (MMP9) (Homo sapiens, UniProt P14780). As to the kind of experiment: MMP9 enzyme inhibition assay (fluorogenic peptide substrate McaPLGLDpaAR). As to conditions: recombinant human 92 kDa gelatinase, 37° C., 2 hours. How it is done: Compounds were tested for inhibitory activity against 92 kDa gelatinase (MMP9) in an assay using a coumarin-labelled peptide substrate, (7-methoxycoumarin-4-yl)acetyl-Pro-Leu-Gly-Leu-(3-[2,4-dinitrophenyl]-L-2,3-diaminopropionyl)-Ala-Arg-NH2 (McaPLGLDpaAR) (Knight et al, FEBS Lett. 1992; 263-266).
as §1, §2, §3, §4

IC50 data for 18 molecules are collected here from patent US20100035943A1, “Oxa-and thiadiazoles and their use as metalloproteinase inhibitors” (VERNALIS (OXFORD) LTD, priority 2002, published 2010).

Some results are limits rather than exact numbers.

metalloelastase (MMP12), sequence (P39900 106-470): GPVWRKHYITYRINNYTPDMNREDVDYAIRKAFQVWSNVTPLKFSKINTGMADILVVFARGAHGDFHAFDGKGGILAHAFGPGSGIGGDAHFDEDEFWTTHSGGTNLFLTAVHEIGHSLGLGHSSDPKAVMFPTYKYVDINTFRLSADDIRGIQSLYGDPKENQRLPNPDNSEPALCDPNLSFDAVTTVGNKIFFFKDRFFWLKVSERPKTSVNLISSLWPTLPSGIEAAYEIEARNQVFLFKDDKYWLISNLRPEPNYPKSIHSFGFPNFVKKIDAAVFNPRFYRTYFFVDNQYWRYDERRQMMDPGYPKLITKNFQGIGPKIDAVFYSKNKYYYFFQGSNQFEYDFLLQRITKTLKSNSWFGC
92 kDa gelatinase (MMP9), sequence (P14780 107-707 limits assumed): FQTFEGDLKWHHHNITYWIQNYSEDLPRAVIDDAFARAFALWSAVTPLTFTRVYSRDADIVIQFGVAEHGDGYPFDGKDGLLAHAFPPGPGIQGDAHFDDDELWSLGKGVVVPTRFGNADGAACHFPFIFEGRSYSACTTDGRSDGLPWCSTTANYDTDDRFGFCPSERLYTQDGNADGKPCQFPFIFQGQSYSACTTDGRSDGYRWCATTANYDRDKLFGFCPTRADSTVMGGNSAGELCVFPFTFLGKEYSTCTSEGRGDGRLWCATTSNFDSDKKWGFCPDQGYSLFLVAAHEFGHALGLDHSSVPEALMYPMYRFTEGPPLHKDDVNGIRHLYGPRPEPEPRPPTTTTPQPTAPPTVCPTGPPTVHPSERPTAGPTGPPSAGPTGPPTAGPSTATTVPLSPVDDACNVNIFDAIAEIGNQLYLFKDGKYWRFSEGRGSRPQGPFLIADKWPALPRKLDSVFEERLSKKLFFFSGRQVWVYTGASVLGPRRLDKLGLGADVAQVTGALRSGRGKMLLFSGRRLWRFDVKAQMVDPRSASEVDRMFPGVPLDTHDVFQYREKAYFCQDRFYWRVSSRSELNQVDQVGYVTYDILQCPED

On to `CC(C)(C)[C@H](NC(=O)[C@H](CCCc1cc(C(F)(F)F)cc(C(F)(F)F)c1)[C@H](O)C(=O)NO)c1noc(-c2ccco2)n1` [Example 34, 2R-[3-(3,5-Bis-trifluoromethyl-phenyl)-propyl]-N1-[1S-(5-furan-2-yl-[1,2,4]oxadiazol-3-yl)-2,2-dimethyl-propyl]-3S,N4-dihydroxy-succinamide], for which the IC50 at collagenase (MMP1), on metalloelastase (MMP12) and on 92 kDa gelatinase (MMP9) was > 10000 nM throughout.
For `Cc1nc([C@@H](NC(=O)[C@H](CC(C)C)[C@H](O)C(=O)NO)C(C)(C)C)no1` [Example 17, 2S-Hydroxy-3R-[1S-(5-methyl-[1,2,4]oxadiazol-3-yl)-2,2-dimethyl-propylcarbamoyl]-5-methyl Hexanohydroxamic Acid], the IC50 against collagenase (MMP1) was 100 to 1000 nM; at metalloelastase (MMP12) it was < 100 nM; at 92 kDa gelatinase (MMP9), 1000 to 10000 nM.
For `C=CC[C@H](C(=O)NO)[C@@H](CC(C)C)C(=O)N[C@@H](Cc1ccccc1)c1nc(-c2ccccc2)no1` [Example 20, 2S-Allyl-5-methyl-3R-[2-phenyl-1S-(3-phenyl-[1,2,4]oxadiazol-5-yl)-ethylcarbamoyl]-hexanohydroxamic Acid], in that order: 100 to 1000 nM, < 100 nM and < 100 nM.
For `CC(C)C[C@@H](C(=O)N[C@H](c1noc(Cc2ccccc2)n1)C(C)(C)C)[C@H](O)C(=O)NO` [Example 10, 2S-Hydroxy-3R-[1S-(5-benzyl-[1,2,4]oxadiazol-3-yl)-2,2-dimethyl-propylcarbamoyl]-5-methyl Hexanohydroxamic Acid], the figures for the IC50 against collagenase (MMP1), at metalloelastase (MMP12) and at 92 kDa gelatinase (MMP9) were 1000 to 10000 nM, < 100 nM and 1000 to 10000 nM, respectively.
As to `CC(C)C[C@@H](C(=O)N[C@H](c1nc(-c2ccccc2)no1)C(C)(C)C)[C@H](O)C(=O)NO` [Example 2, 3R-[2,2-Dimethyl-1S-(3-phenyl-[1,2,4]oxadiazol-5-yl)-propylcarbamoyl]-2S-hydroxy-5-methyl-hexanohydroxamic Acid], the 50% inhibitory concentration (IC50) was 100 to 1000 nM against collagenase (MMP1), < 100 nM against metalloelastase (MMP12) and 100 to 1000 nM on 92 kDa gelatinase (MMP9).
On to `CO[C@H](C(=O)NO)[C@@H](CC(C)C)C(=O)N[C@@H](Cc1ccccc1)c1nc(C)no1` [Example 25, 2S-Methoxy-5-methyl-3R-[1S-(3-methyl-[1,2,4]oxadiazol-5-yl)-2-phenyl-ethylcarbamoyl]-hexanohydroxamic Acid], for which the IC50 against collagenase (MMP1) is 100 to 1000 nM; against metalloelastase (MMP12) it was < 100 nM; at 92 kDa gelatinase (MMP9), 100 to 1000 nM.
As for `CC(C)C[C@@H](C(=O)N[C@H](c1noc(CC2CCCC2)n1)C(C)(C)C)[C@H](O)C(=O)NO` [Example 6, 2S-Hydroxy-3R-[1S-(5-cyclopentylmethyl-[1,2,4]oxadiazol-3-yl)-2,2-dimethyl-propylcarbamoyl]-5-methyl Hexanohydroxamic Acid], the IC50 was 100 to 1000 nM against collagenase (MMP1), < 100 nM against metalloelastase (MMP12) and 1000 to 10000 nM on 92 kDa gelatinase (MMP9).
In the case of `C=CC[C@H](C(=O)NO)[C@@H](CC(C)C)C(=O)N[C@@H](Cc1ccccc1)c1nc(C(C)C)no1` [Example 21, 2S-Allyl-5-methyl-3R-[2-phenyl-1S-(3-isopropyl-[1,2,4]oxadiazol-5-yl)-ethylcarbamoyl]-hexanohydroxamic Acid], the IC50 is 100 to 1000 nM at collagenase (MMP1), < 100 nM at metalloelastase (MMP12) and < 100 nM on 92 kDa gelatinase (MMP9).
Consider `C=CC[C@H](C(=O)NO)[C@@H](CC(C)C)C(=O)N[C@@H](Cc1ccccc1)c1nc(C)no1` [Example 22, 2S-Allyl-5-methyl-3R-[2-phenyl-1S-(3-methyl-[1,2,4]oxadiazol-5-yl)-ethylcarbamoyl]-hexanohydroxamic Acid], for which, at collagenase (MMP1), the IC50 was < 100 nM.
Regarding `CCc1nc([C@@H](NC(=O)[C@H](CC(C)C)[C@H](O)C(=O)NO)C(C)(C)C)no1` [Example 8, 2S-Hydroxy-3R-[1S-(5-ethyl-[1,2,4]oxadiazol-3-yl)-2,2-dimethyl-propylcarbamoyl]-5-methyl Hexanohydroxamic Acid], the IC50 was 100 to 1000 nM on collagenase (MMP1), < 100 nM on metalloelastase (MMP12) and 100 to 1000 nM on 92 kDa gelatinase (MMP9).
On to `CC(C)c1noc([C@@H](NC(=O)[C@H](CC2CCCC2)[C@H](O)C(=O)NO)C(C)(C)C)n1` [Example 32, 2R-Cyclopentylmethyl-3S,N4-dihydroxy-N1-[1S-(3-isopropyl-[1,2,4]oxadiazol-5-yl)-2,2-dimethyl-propyl]-succinamide], for which the concentration for half-maximal inhibition (IC50) on collagenase (MMP1), at metalloelastase (MMP12) and at 92 kDa gelatinase (MMP9) was < 100 nM in each case.
Turning to `CC(C)C[C@@H](C(=O)N[C@H](c1nc(-c2ccccc2)no1)C(C)C)[C@H](O)C(=O)NO` [Example 19, 2S, N1-Dihydroxy-3R-isobutyl-N4-[2-methyl-1S-(3-phenyl-[1,2,4]oxadiazol-5-yl)-propyl]-succinamide], the half-inhibitory concentration (IC50) at collagenase (MMP1) was 100 to 1000 nM; against metalloelastase (MMP12) it was < 100 nM; at 92 kDa gelatinase (MMP9) it was 100 to 1000 nM.
In the case of `CC(C)C[C@@H](C(=O)N[C@H](c1nc(C(C)C)no1)C(C)(C)C)[C@H](O)C(=O)NO` [Example 18, 2S-Hydroxy-3R-[1S-(3-isopropyl-[1,2,4]oxadiazol-3-yl)-2,2-dimethyl-propylcarbamoyl]-5-methyl Hexanohydroxamic Acid], the 50% inhibitory concentration (IC50) against collagenase (MMP1) was 100 to 1000 nM; against metalloelastase (MMP12), < 100 nM; on 92 kDa gelatinase (MMP9), 100 to 1000 nM.
Turning to `Cc1ccc(-c2nc([C@@H](NC(=O)[C@H](CC(C)C)[C@H](O)C(=O)NO)C(C)(C)C)no2)cc1` [Example 15, 2S-Hydroxy-3R-[1S-(5-p-tolyl-[1,2,4]oxadiazol-3-yl)-2,2-dimethyl-propylcarbamoyl]-5-methyl Hexanohydroxamic Acid], the figures for the IC50 at collagenase (MMP1), against metalloelastase (MMP12) and on 92 kDa gelatinase (MMP9) were 100 to 1000 nM, < 100 nM and 100 to 1000 nM, respectively.
With `CC(C)C[C@@H](C(=O)N[C@H](c1noc(CC(C)(C)C)n1)C(C)(C)C)[C@H](O)C(=O)NO` [Example 14, 2S-Hydroxy-3R-[1S-(5-(2,2-dimethyl-propyl)-[1,2,4]oxadiazol-3-yl)-2,2-dimethyl-propylcarbamoyl]-5-methyl Hexanohydroxamic Acid], the IC50 is 1000 to 10000 nM at collagenase (MMP1), < 100 nM against metalloelastase (MMP12) and 1000 to 10000 nM on 92 kDa gelatinase (MMP9).
For the molecule `CC(C)(C)[C@H](NC(=O)[C@H](CCCc1ccc(Cl)cc1)CC(=O)O)c1noc(-c2ccccc2)n1` [Example 28, 6-(4-Chloro-phenyl)-3R-[2,2-dimethyl-1S-(5-phenyl-[1,2,4]oxadiazol-3-yl)-propylcarbamoyl]-hexanoic Acid], on metalloelastase (MMP12), the IC50 was > 10000 nM.
For the molecule `CCCCCCCCCCCCCC[C@H](CC(=O)O)C(=O)N[C@H](c1nc(-c2ccccc2)no1)C(C)(C)C` [Example 26, 3R-[2,2-Dimethyl-1S-(3-phenyl-[1,2,4]oxadiazol-5-yl)-propylcarbamoyl]-heptadecanoic Acid], the IC50 at metalloelastase (MMP12) and at 92 kDa gelatinase (MMP9) was > 10000 nM each time.
`CCCCCCCCCCCCCCCC[C@H](CC(=O)O)C(=O)N[C@H](c1nc(-c2ccccc2)no1)C(C)(C)C` [Example 27, 3R-[2,2-Dimethyl-1S-(3-phenyl-[1,2,4]oxadiazol-5-yl)-propylcarbamoyl]-nonadecanoic Acid]: the IC50 at metalloelastase (MMP12) and on 92 kDa gelatinase (MMP9) was > 10000 nM each time.

The term IC50 denotes the concentration needed to halve the response being measured.
